Test results taken from patent US20240057598A1, “USE OF 2-AMINO-3-METHYLHEXANOIC ACID AS PLANT IMMUNITY INDUCER” (NANJING AGRICULTURAL UNIVERSITY, priority 2020, published 2024).

How the values were obtained:
[1] = tested on: powdery mildew fungus; assay: Induced resistance of wheat to powdery mildew fungus infection; type: in vivo
Method: 2-amino-3-methylhexanoic acid was dissolved in distilled water and diluted with distilled water into solutions of 1 nM, 10 nM, 100 nM, 1,000 nM and 10,000 nM by gradient, and blank control was additionally set. Wheat seeds were germinated, planted in a sterilized soil culture pot and cultured in a greenhouse at 23(±1)° C. with light for 12 h. When the seedlings grew to the stage of one leaf and one bud, the stems and leaves of the wheat seedlings were sprayed with the 2-amino-3-methylhexanoic acid solutions of the above concentrations. The treatment was repeated once after 24 h and conducted twice in total. After 24 h, fresh wheat powdery mildew spores were evenly scattered on the wheat leaves in three pots, with 20 plants per pot. After 10 days, the disease grade of wheat treated at each concentration was investigated. The disease degree was recorded according to the wheat powdery mildew grading standard in the Guidelines for the Field Efficacy Trials of Pesticides (I), and the disease index and relative immune effect were calculated by a method the same as that for calculating the disease index and relative immune effect of tomato spotted wilt. At the same time, the middle segment of the last but one leaf of wheat was taken and the distribution of mycelia on the wheat leaves was observed by referring to Wolf and Fric's rapid staining method of powdery mildew. Grading standard of wheat powdery mildew (per leaf): • Grade 1: The diseased spot area accounts for 5% or less of the whole leaf area. • Grade 3: The diseased spot area accounts for 6-15% of the whole leaf area. • Grade 5: The diseased spot area accounts for 16-25% of the whole leaf area. • Grade 7: The diseased spot area accounts for 26-50% of the whole leaf area. • Grade 9: The diseased spot area accounts for 50% or more of the whole leaf area.

[2] = tested on: wheat; assay: Induced resistance of wheat to drought stress (25% PEG-6000); type: in vivo; conditions: for Drought injury index / Dry weight Overground part / Dry weight Underground part / Fresh weight Overground part / Fresh weight Underground part / Length of root: wheat, 25% PEG-6000 6 days, 7 days recovery
Method: Wheat was cultured in water in a 6-mesh sieve used as a container according to 50 grains per sieve, and ½ Hoagland nutrient solution was changed every three days. When the wheat grew to the stage of two leaves and one bud, the leaf surface was sprayed with 2-amino-3-methylhexanoic acid solutions, the concentration of the 2-amino-3-methylhexanoic acid was 0, 100 and 1,000 nM, and 0.02% Tween 20 was added as a surfactant. After two days of continuous spraying, the water culture nutrient solution was replaced with ½ Hoagland nutrient solution containing 25% PEG-6000 on the 3rd day for stress treatment. After 6 days of drought stress, rehydration treatment was conducted. After 7 days of recovery growth in a normal nutrient solution, the drought index was observed and determined, and the root length and biomass were determined.
The performance characteristics of drought injury of leaves are similar to those of salt injury. The drought injury rate and the drought injury index were introduced by using the evaluation indexes of salt injury. The formula for calculating the drought injury index is as follows, and the grading standard of drought injury is shown in Table 11.

[3] = tested on: Achromobacter butyri; conditions: cited from earlier work
[4] = tested on: E. coli B; conditions: cited from earlier work
[5] = tested on: tea "Baiye 1" cutting seedlings; assay: Induced resistance of tea to low temperature stress; type: in vivo; conditions: for PIABS / Cold injury index: tea seedlings, −4° C. for 24 h; for Cold injury index: 3 days recovery
Method: The tea trees tested were “Baiye 1” cutting seedlings. Tea seedlings with relatively consistent growth were transplanted into a plastic pot with a diameter of 18 cm and placed in a greenhouse at a temperature of 25° C. and a humidity of 60%-70% for adaptive growth for about a week. The concentrations of 0, 1, 10, 100 and 1,000 nM were set in the experiment, and 0.02% Tween 20 was added as a surfactant. The spray treatment method was the same as that of the ryegrass in Example 4, and the low temperature stress treatment was conducted at −4° C. for 24 h. After the stress was completed, the tea seedlings were taken out and treated in the dark at room temperature for 30 min, and then the chlorophyll fluorescence parameters of the top leaves of the tea seedlings was determined using the plant efficiency analyzer Handy PEA. Then, the tea seedlings were placed in a 25° C. greenhouse to recover for 3 days, and the cold injury status was observed, counted and graded.

[6] = concentration greater than 1,000 nM, susceptible wheat variety
[7] = 1,000 nM, wheat seedlings, drought stress
[8] = 1,000 nM, tea leaves, low temperature stress

Question: Which Relative immune effect ([1]; 1 nM, wheat) does the source give for `CCCC(C)C(N)C(=O)O` (stereo not shown) [2-amino-3-methylhexanoic acid] here?
Answer: 3.5%

Question: And the Relative immune effect ([1]; 10 nM, wheat)?
Answer: 15.56%

Question: What about the Relative immune effect ([1]; 100 nM, wheat) of the same molecule?
Answer: 27.63%

Question: And the Relative immune effect ([1]; 1,000 nM, wheat)?
Answer: 55.06%

Question: And the Relative immune effect ([1]; 10,000 nM, wheat)?
Answer: 65.37%

Question: And the Disease index [1, 6]?
Answer: lower than 50

Question: What about the Relative immune effect [1, 6] of the same molecule?
Answer: more than 50%

Question: What about the Drought injury index ([2]; 100 nM) of the same molecule?
Answer: 50%

Question: What about the “Dry weight Overground part” value ([2]; 100 nM) of the same molecule?
Answer: 0.79 ± 0.01a

Question: And the “Dry weight Underground part” value ([2]; 100 nM)?
Answer: 0.34 ± 0.02a

Question: What about the “Fresh weight Overground part” value ([2]; 100 nM) of the same molecule?
Answer: 6.71 ± 0.69b

Question: What about the “Fresh weight Underground part” value ([2]; 100 nM) of the same molecule?
Answer: 3.48 ± 0.40a

Question: And the Length of root ([2]; 100 nM)?
Answer: 13.83 ± 0.26b

Question: And the “Decrease of drought index” value [2, 7]?
Answer: 36%

Question: And the “Increase of dry weight of aboveground part” value [2, 7]?
Answer: 10.00%

Question: What about the “Increase of dry weight of underground part” value [2, 7] of the same molecule?
Answer: 18.75%

Question: And the “Increase of fresh weight of aboveground part” value [2, 7]?
Answer: 35.82%

Question: And the “Increase of fresh weight of underground part” value [2, 7]?
Answer: 34.33%

Question: What about the “Increase of root length compared with control group” value [2, 7] of the same molecule?
Answer: 6%

Question: And the Drought injury index ([2]; 1,000 nM)?
Answer: 30%

Question: What about the “Dry weight Overground part” value ([2]; 1,000 nM) of the same molecule?
Answer: 0.88 ± 0.05a

Question: And the “Dry weight Underground part” value ([2]; 1,000 nM)?
Answer: 0.38 ± 0.02a

Question: What about the “Fresh weight Overground part” value ([2]; 1,000 nM) of the same molecule?
Answer: 8.72 ± 0.59a

Question: What about the “Fresh weight Underground part” value ([2]; 1,000 nM) of the same molecule?
Answer: 4.46 ± 0.01a

Question: What about the Length of root ([2]; 1,000 nM) of the same molecule?
Answer: 14.50 ± 0.27a

Question: And the Inhibitory effect [3]?
Answer: slight inhibitory effect

Question: And the Inhibitory effect [4]?
Answer: slight inhibitory effect

Question: And the PIABS ([5]; 1 nM)?
Answer: 17.69 ± 2.12b

Question: And the Cold injury index ([5]; 1 nM)?
Answer: 45%

Question: And the PIABS ([5]; 10 nM)?
Answer: 21.30 ± 1.73ab

Question: And the Cold injury index ([5]; 10 nM)?
Answer: 30%

Question: And the PIABS ([5]; 100 nM)?
Answer: 27.01 ± 3.27a

Question: What about the Cold injury index ([5]; 100 nM) of the same molecule?
Answer: 15%

Question: What about the “Decrease of cold injury index” value [5, 8] of the same molecule?
Answer: 65%

Question: And the “Increase of PIABS” value [5, 8]?
Answer: 313%

Question: And the PIABS ([5]; 1,000 nM)?
Answer: 30.42 ± 3.51a

Question: And the Cold injury index ([5]; 1,000 nM)?
Answer: 10%
